The source made the active and inactive calls.
How the values were obtained:
[1] = intracellular Trypanosoma cruzi inhibitors in host cells – cell-based, plate reader, cherry-pick samples, set 3, dose response (AID 651818); type: functional;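 also: compounds incubated with infected cells for about four days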
[2] = reduction of Shn3 3'UTR-driven luciferase in osteoblasts – cell-based, Clone20 osteoblasts, firefly luciferase, cherry-picked, dose response (AID 624132); type: functional;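 also: firefly luciferase luminescence from reporter carrying the Shn3 3'UTR in osteoblasts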
[3] = target: FAD-linked sulfhydryl oxidase ALR (Homo sapiens, UniProt P55789); experiment: ALR-catalysed DTT oxidation blockers – biochemical, H2O2 detection, luminescence, cherry-pick, dose response (AID 493248)
FAD-linked sulfhydryl oxidase ALR, sequence (P55789 whole entry): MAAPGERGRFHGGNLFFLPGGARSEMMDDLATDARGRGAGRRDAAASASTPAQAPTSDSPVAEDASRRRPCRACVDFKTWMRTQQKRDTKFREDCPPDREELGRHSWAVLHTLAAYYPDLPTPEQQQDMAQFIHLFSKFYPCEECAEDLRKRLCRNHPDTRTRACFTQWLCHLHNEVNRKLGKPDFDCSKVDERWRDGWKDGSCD

INS1 = experiment: INS-1E survival protection against cytokine death – cell-based, luminescence, retest, dose response (AID 449756); type: functional; details: Rattus norvegicus;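 also: cell death triggered by IL-1 beta plus TNF-alpha plus IFN-gamma mixture; protective hits raise ATP signal compared with cytokine alone wells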
[4] = non-specific 3'UTR reporter inhibition in Clone20-Shn3RL – cell-based, Renilla luciferase, cherry-picked, counter-screen for Shn3 inhibitor project, dose response (AID 624133); type: functional
Nonstructural protein 1 = Nonstructural protein 1 (Influenza A virus, UniProt Q194T2); type: functional, Influenza A virus (A/California/07/2009(H1N1))
Nonstructural protein 1, sequence (Q194T2 whole entry): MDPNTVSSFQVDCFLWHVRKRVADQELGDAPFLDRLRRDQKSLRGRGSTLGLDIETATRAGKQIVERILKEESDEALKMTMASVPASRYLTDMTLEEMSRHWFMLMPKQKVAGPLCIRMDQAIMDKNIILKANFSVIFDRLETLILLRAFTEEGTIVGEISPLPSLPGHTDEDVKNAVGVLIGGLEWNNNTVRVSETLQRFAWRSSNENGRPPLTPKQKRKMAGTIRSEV

[5] = NIH3T3 cell viability loss – ATP luminescence, mouse fibroblasts, counter-screen, dose response (AID 2010); type: functional, cell-based;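 also: cells exposed to compound for about 90 hours before reading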
[6] = loss of viability in HepG2 cells – cell-based, CellTiter-Glo, cherry-picked, cytotoxicity control for Shn3 inhibitor project, dose response (AID 624134); type: functional
[7] = Trypanosoma cruzi growth suppression in host cells – NIH3T3 host cells, beta-gal luminescence, confirmation (AID 2044); type: functional, cell-based;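 also: intracellular parasites grown in NIH/3T3 mouse fibroblasts as host cells; luminescent beta-galactosidase reporter signal from transgenic T. cruzi replicating inside host cells; inhibitors lower the luminescence signal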
Aminopeptidase N = target: T1, Aminopeptidase N (Plasmodium falciparum FcB1/Columbia, UniProt O96935); experiment: malaria alanyl aminopeptidase activity blockers – biochemical, fluorogenic H-Leu-NHMec substrate, 1536-well (AID 1445); parameters: species or system Plasmodium falciparum 3D7, 3D7
T1 sequence (O96935 whole entry): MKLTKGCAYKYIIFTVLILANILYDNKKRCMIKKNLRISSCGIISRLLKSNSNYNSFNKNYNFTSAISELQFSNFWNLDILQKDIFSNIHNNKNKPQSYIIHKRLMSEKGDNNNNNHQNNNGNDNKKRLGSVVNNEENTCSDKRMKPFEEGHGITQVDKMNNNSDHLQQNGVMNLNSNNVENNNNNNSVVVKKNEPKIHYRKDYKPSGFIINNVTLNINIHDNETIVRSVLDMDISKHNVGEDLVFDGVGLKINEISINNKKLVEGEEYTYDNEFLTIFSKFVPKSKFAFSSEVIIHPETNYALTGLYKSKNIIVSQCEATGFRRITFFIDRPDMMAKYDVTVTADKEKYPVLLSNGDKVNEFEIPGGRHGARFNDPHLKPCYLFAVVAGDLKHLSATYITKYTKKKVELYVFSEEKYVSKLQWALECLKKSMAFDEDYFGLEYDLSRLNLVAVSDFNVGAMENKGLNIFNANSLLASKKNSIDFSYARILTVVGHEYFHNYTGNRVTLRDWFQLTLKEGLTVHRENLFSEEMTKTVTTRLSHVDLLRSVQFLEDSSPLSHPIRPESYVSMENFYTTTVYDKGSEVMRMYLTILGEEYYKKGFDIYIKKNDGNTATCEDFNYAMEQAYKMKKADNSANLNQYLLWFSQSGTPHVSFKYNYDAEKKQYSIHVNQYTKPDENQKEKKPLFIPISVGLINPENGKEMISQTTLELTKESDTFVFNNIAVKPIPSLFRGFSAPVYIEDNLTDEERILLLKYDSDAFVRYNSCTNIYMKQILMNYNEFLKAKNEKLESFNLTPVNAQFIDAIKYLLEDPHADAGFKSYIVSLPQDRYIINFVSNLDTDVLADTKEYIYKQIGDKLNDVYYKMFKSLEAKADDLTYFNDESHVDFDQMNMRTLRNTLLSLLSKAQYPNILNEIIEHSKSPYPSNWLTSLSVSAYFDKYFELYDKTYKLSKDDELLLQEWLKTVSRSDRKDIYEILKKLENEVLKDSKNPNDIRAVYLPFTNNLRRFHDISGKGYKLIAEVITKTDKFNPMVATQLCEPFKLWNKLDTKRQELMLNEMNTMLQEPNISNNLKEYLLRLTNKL

[8] = target: T2, Heat shock factor protein 1 (Mus musculus, UniProt P38532); experiment: enhancement of HSF1-driven luciferase signal – cell-based, NIH3T3, luminescence, dose retest, confirmation (AID 435004); type: functional;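 also: stress induced by proteasome inhibitor MG132 added 30 min after compound; luciferase reporter driven by HSF1 response element in NIH3T3 cells; actives raise luminescence as potentiators of the MG132 stress response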
T2 sequence (P38532 whole entry): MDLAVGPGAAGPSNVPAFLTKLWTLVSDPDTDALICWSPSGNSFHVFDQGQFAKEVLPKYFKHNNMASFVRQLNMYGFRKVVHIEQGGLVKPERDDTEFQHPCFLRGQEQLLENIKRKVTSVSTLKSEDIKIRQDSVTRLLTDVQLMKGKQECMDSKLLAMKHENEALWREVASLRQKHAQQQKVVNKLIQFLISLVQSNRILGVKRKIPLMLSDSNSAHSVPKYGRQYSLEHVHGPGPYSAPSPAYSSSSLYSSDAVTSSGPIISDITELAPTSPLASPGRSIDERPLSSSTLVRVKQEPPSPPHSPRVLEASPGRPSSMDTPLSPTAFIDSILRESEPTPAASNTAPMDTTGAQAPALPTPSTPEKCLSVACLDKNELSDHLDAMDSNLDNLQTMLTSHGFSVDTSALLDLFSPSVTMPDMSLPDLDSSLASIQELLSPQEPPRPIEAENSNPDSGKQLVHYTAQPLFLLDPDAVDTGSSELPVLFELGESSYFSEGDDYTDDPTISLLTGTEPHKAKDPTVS

[9] = target: T3, Replicative DNA helicase DnaB (Mycobacterium tuberculosis, UniProt P9WMR3); experiment: DnaB intein splicing inhibitors, dose response, biochemical, cell-free fluorescence (AID 449749); type: functional
T3 sequence (P9WMR3 whole entry): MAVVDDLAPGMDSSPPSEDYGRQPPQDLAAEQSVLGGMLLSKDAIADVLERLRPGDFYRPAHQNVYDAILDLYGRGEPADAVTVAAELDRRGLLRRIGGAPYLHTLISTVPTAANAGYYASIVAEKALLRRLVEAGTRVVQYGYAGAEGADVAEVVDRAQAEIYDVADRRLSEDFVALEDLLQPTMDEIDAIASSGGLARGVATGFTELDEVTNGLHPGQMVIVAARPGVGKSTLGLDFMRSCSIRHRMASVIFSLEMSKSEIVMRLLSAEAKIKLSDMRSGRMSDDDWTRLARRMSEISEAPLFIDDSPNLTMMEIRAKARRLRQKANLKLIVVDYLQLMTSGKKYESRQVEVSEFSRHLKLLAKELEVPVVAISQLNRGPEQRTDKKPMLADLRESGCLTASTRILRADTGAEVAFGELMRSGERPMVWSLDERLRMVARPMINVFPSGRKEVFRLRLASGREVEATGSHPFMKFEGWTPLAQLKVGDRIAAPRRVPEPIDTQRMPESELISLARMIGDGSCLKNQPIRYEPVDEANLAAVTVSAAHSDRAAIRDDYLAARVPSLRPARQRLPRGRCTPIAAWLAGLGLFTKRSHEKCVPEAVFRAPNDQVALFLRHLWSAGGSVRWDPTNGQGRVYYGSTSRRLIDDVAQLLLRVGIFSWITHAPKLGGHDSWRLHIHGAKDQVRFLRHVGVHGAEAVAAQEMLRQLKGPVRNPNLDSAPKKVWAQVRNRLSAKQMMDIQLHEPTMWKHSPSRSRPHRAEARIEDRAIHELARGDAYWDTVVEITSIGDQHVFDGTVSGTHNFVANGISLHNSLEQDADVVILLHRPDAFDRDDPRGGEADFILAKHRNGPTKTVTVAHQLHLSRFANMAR

Protein RecA = target: T4, Protein RecA (Mycobacterium tuberculosis, UniProt P9WHJ3); experiment: Fluorescence Cell-Free Homogeneous Dose Retest to Identify Inhibitors of RecA-Intein Splicing Activity. [Related pubchem assays (depositor defined):AID2097, AID2223, AID489010, AID492950]; type: functional
T4 sequence (P9WHJ3 whole entry): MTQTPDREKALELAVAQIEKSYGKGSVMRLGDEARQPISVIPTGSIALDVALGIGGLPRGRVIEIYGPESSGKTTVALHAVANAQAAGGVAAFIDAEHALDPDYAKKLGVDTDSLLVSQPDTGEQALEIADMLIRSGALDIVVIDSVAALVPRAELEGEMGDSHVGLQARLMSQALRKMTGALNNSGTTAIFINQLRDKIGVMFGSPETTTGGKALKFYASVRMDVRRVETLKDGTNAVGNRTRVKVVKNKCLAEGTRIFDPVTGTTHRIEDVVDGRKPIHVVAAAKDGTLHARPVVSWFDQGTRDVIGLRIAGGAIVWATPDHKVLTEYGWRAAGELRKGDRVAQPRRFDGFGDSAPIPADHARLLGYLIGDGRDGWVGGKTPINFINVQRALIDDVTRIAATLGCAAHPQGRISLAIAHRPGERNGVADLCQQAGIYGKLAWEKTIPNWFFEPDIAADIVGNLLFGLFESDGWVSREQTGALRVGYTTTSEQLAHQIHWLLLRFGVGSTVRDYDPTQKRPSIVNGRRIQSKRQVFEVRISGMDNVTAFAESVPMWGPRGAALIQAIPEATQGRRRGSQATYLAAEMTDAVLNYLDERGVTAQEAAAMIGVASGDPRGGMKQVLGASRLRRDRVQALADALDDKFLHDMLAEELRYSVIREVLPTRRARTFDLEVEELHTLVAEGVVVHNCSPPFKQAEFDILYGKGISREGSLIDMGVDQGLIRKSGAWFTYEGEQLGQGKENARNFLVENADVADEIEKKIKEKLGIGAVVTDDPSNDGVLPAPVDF

Structure (SMILES): C[C@@H]1CN([C@@H](C)CO)C(=O)c2cccc(NS(=O)(=O)c3ccccc3)c2O[C@@H]1CN(C)Cc1ccc(-c2ccccc2)cc1
- AC50 [1]: 3.3 µM (active)

Structure (SMILES): CCN(CC)c1ccc(CNc2nc3ccccc3n2CCN2CCCCC2)cc1
- AC50 [2]: 2.64 µM (active)
- AC50 [3]: 0.68 µM (active)
- AC50 (INS1): 7.16 µM (active)
- AC50 [4]: 1.51 µM (active)
- IC50 (Nonstructural protein 1): 27 µM (active)
- EC50 [5]: 7.56 µM (active)
- AC50 [6]: 10.2 µM (active)
- EC50 [7]: 3.28 µM (active)

Structure (SMILES): CCc1n[nH]c(C(=O)N2CCCC(Nc3cccc(F)c3)C2)c1C (centres undefined)
- AC50 [3]: 2.88 µM (active)

Structure (SMILES): C[C@H]1CN([C@@H](C)CO)C(=O)c2cccc(NC(=O)c3cnccn3)c2O[C@H]1CN(C)Cc1ccc(C(=O)Nc2ccccc2N)cc1
- AC50 [1]: 0.803 µM (active)

Structure (SMILES): O=C(CCC1CCCN(C(=O)c2ccc3cc[nH]c3c2)C1)NCc1ccc(F)c(F)c1 (centres undefined)
- IC50 (Aminopeptidase N): 33.1 µM (active)
- EC50 [8]: 38.9 µM (active)

Structure (SMILES): Cc1ccc(S(=O)(=O)Nc2cc(C)c(O)cc2C)cc1
- AC50 [3]: 3.11 µM (active)

Structure (SMILES): Cc1ccc(NC2CCCN(C(=O)c3cn4cc(Cl)ccc4n3)C2)cc1C (centres undefined)
- AC50 [3]: 1.01 µM (active)

Structure (SMILES): COc1ccccc1C(NC(C)=O)c1c(O)ccc2ccc(O)cc12 (centres undefined)
- AC50 [3]: 2.44 µM (active)
- AC50 [9]: > 380 µM (inactive)
- EC50 (Protein RecA): 2.89 µM (active)

Structure (SMILES): O=C(CCN1CCOCC1)Nc1c(O)nc2ccc(Br)cc2c1-c1ccccc1
- IC50 (Aminopeptidase N): 93.9 µM (active)

Source: ChEMBL document CHEMBL1201862, “PubChem BioAssay data set” (2004)
